In ChEMBL document CHEMBL5724914, “Linking interpersonal differences in gut microbiota composition and drug biotransformation activity” (2024):

Key:
[1] = (§1) The drug is tested on Z-028 corresponding to mouse gut metagenome with ENA study accession number: PRJEB37062 and ENA sample accession number: ERS12561827 for biotransformation under anaerobic condition. The drug concentrations were measured over 9 timepoints collected between 0 and 24 hours of incubation by liquid-chromatography-coupled mass spectrometry (LC–MS); conditions: 2 µM
[2] = as §1, with “Z-022” for “Z-028”, “ERS12561821” for “ERS12561827”; conditions: 2 µM
[3] = as §1, with “Z-007” for “Z-028”, “rat” for “mouse”, “ERS12561807” for “ERS12561827”; conditions: 2 µM
[4] = as §1, with “WLS-350” for “Z-028”, “human” for “mouse”, “ERS12561789” for “ERS12561827”; conditions: 2 µM
[5] = as §1, with “WLS-240” for “Z-028”, “human” for “mouse”, “ERS12561773” for “ERS12561827”; conditions: 2 µM
[6] = as §1, with “WLS-170” for “Z-028”, “human” for “mouse”, “ERS12561762” for “ERS12561827”; conditions: 2 µM
[7] = as §1, with “WLS-073” for “Z-028”, “human” for “mouse”, “ERS12561749” for “ERS12561827”; conditions: 2 µM
[8] = as §1, with “WLS-010” for “Z-028”, “human” for “mouse”, “ERS12561743” for “ERS12561827”; conditions: 2 µM
[9] = as §1, with “WLS-006” for “Z-028”, “human” for “mouse”, “ERS12561741” for “ERS12561827”; conditions: 2 µM
[10] = human gut metagenome, 24 h, 2 µM
[11] = human gut metagenome, 24 h, 2 µM; remark: listed apart in the source
[12] = human gut metagenome, 24 h, 2 µM; remark: listed apart in the source
[13] = human gut metagenome, 24 h, 2 µM; remark: listed apart in the source
[14] = human gut metagenome, 24 h, 2 µM; remark: listed apart in the source
[15] = human gut metagenome, 24 h, 2 µM; remark: listed apart in the source
[16] = human gut metagenome, 24 h, 2 µM; remark: listed apart in the source
[17] = human gut metagenome, 24 h, 2 µM; remark: listed apart in the source
[18] = human gut metagenome, 24 h, 2 µM; remark: listed apart in the source
[19] = human gut metagenome, 24 h, 2 µM; remark: listed apart in the source
[20] = human gut metagenome, 24 h, 2 µM; remark: listed apart in the source
Note: call rule not given here.

| SMILES | Bacterial Biotransformation [1] | Bacterial Biotransformation [2] | Bacterial Biotransformation [3] | Bacterial Biotransformation [4] | Bacterial Biotransformation [5] | Bacterial Biotransformation [6] | Bacterial Biotransformation [7] | Bacterial Biotransformation [8] | Bacterial Biotransformation [9] | Bacterial Biotransformation [10] | Bacterial Biotransformation [11] | Bacterial Biotransformation [12] | Bacterial Biotransformation [13] | Bacterial Biotransformation [14] | Bacterial Biotransformation [15] | Bacterial Biotransformation [16] | Bacterial Biotransformation [17] | Bacterial Biotransformation [18] | Bacterial Biotransformation [19] | Bacterial Biotransformation [20] |
| --- | --- | --- | --- | --- | --- | --- | --- | --- | --- | --- | --- | --- | --- | --- | --- | --- | --- | --- | --- | --- |
| COCCc1ccc(OCC(O)CNC(C)C)cc1.COCCc1ccc(OCC(O)CNC(C)C)cc1.O=C(O)C(O)C(O)C(=O)O (stereo not given) [METOPROLOL TARTRATE] | Compound NOT metabolized | Compound NOT metabolized | Compound NOT metabolized | Compound metabolized | Compound metabolized | Compound metabolized | Compound NOT metabolized | Compound NOT metabolized | Compound NOT metabolized | Compound metabolized | Compound NOT metabolized | Compound NOT metabolized | Compound metabolized | Compound metabolized | Compound metabolized | Compound NOT metabolized | Compound NOT metabolized | Compound metabolized | Compound NOT metabolized | Compound NOT metabolized |
| CCCc1nc2c(C)cc(-c3nc4ccccc4n3C)cc2n1Cc1ccc(-c2ccccc2C(=O)O)cc1 | Compound metabolized | Compound metabolized | Compound metabolized | Compound metabolized | Compound metabolized | Compound metabolized | Compound metabolized | Compound metabolized | Compound metabolized | Compound metabolized | Compound metabolized | Compound metabolized | Compound metabolized | Compound metabolized | Compound metabolized | Compound metabolized | Compound metabolized | Compound metabolized | Compound metabolized | Compound NOT metabolized |
| COC1=CC(=O)C[C@@H](C)[C@]12Oc1c(Cl)c(OC)cc(OC)c1C2=O [GRISEOFULVIN] | Compound metabolized | Compound metabolized | Compound metabolized | Compound NOT metabolized | Compound metabolized | Compound metabolized | Compound metabolized | Compound metabolized | Compound metabolized | Compound metabolized | Compound NOT metabolized | Compound metabolized | Compound metabolized | Compound NOT metabolized | Compound metabolized | Compound metabolized | Compound metabolized | Compound metabolized | Compound metabolized | Compound metabolized |
| Cc1ccnc2c1NC(=O)c1cccnc1N2C1CC1 [NEVIRAPINE] | Compound NOT metabolized | Compound NOT metabolized | Compound NOT metabolized | Compound metabolized | Compound metabolized | Compound metabolized | Compound NOT metabolized | Compound NOT metabolized | Compound NOT metabolized | Compound NOT metabolized | Compound NOT metabolized | Compound NOT metabolized | Compound NOT metabolized | Compound NOT metabolized | Compound metabolized | Compound metabolized | Compound metabolized | Compound NOT metabolized | Compound NOT metabolized | Compound NOT metabolized |
| COc1ccccc1OCC(O)COC(N)=O (stereo not given) [METHOCARBAMOL] | Compound NOT metabolized | Compound NOT metabolized | Compound NOT metabolized | Compound NOT metabolized | Compound NOT metabolized | Compound NOT metabolized | Compound NOT metabolized | Compound NOT metabolized | Compound NOT metabolized | Compound NOT metabolized | Compound NOT metabolized | Compound NOT metabolized | Compound NOT metabolized | Compound NOT metabolized | Compound NOT metabolized | Compound NOT metabolized | Compound NOT metabolized | Compound NOT metabolized | Compound NOT metabolized | Compound NOT metabolized |

Continued, values first:

| Bacterial Biotransformation [1] | Bacterial Biotransformation [2] | Bacterial Biotransformation [3] | Bacterial Biotransformation [4] | Bacterial Biotransformation [5] | Bacterial Biotransformation [6] | Bacterial Biotransformation [7] | Bacterial Biotransformation [8] | Bacterial Biotransformation [9] | Bacterial Biotransformation [10] | Bacterial Biotransformation [11] | Bacterial Biotransformation [12] | Bacterial Biotransformation [13] | Bacterial Biotransformation [14] | Bacterial Biotransformation [15] | Bacterial Biotransformation [16] | Bacterial Biotransformation [17] | Bacterial Biotransformation [18] | Bacterial Biotransformation [19] | Bacterial Biotransformation [20] | SMILES |
| --- | --- | --- | --- | --- | --- | --- | --- | --- | --- | --- | --- | --- | --- | --- | --- | --- | --- | --- | --- | --- |
| Compound NOT metabolized | Compound NOT metabolized | Compound NOT metabolized | Compound NOT metabolized | Compound metabolized | Compound metabolized | Compound NOT metabolized | Compound NOT metabolized | Compound NOT metabolized | Compound NOT metabolized | Compound NOT metabolized | Compound metabolized | Compound metabolized | Compound NOT metabolized | Compound metabolized | Compound metabolized | Compound NOT metabolized | Compound metabolized | Compound metabolized | Compound NOT metabolized | OCCOCCN1CCN(C2=Nc3ccccc3Sc3ccccc32)CC1 [QUETIAPINE] |
| Compound metabolized | Compound metabolized | Compound NOT metabolized | Compound NOT metabolized | Compound NOT metabolized | Compound NOT metabolized | Compound metabolized | Compound metabolized | Compound metabolized | Compound NOT metabolized | Compound NOT metabolized | Compound NOT metabolized | Compound NOT metabolized | Compound NOT metabolized | Compound metabolized | Compound NOT metabolized | Compound NOT metabolized | Compound NOT metabolized | Compound NOT metabolized | Compound NOT metabolized | CO[C@]12C[C@@H](COC(=O)c3cncc(Br)c3)CN(C)[C@@H]1Cc1cn(C)c3cccc2c13 [NICERGOLINE] |
| Compound NOT metabolized | Compound NOT metabolized | Compound NOT metabolized | Compound metabolized | Compound metabolized | Compound metabolized | Compound metabolized | Compound metabolized | Compound metabolized | Compound metabolized | Compound metabolized | Compound metabolized | Compound metabolized | Compound metabolized | Compound metabolized | Compound metabolized | Compound metabolized | Compound metabolized | Compound metabolized | Compound metabolized | CCN(CC)C(C)CN1c2ccccc2Sc2ccccc21 (stereo not given) [ETHOPROPAZINE] |
| Compound NOT metabolized | Compound metabolized | Compound NOT metabolized | Compound metabolized | Compound metabolized | Compound metabolized | Compound metabolized | Compound metabolized | Compound metabolized | Compound metabolized | Compound NOT metabolized | Compound NOT metabolized | Compound metabolized | Compound metabolized | Compound metabolized | Compound metabolized | Compound metabolized | Compound metabolized | Compound metabolized | Compound NOT metabolized | COc1cc2nc(N(C)CCCNC(=O)C3CCCO3)nc(N)c2cc1OC (stereo not given) [ALFUZOSIN] |
